Species on record: Rattus norvegicus
Experiment: Open TG-GATES - Regimen: Single
Assay type: toxicity, organism-based, Sprague-Dawley
Set-up: regimen Single, gender Male, age 6 weeks
Conditions: in vivo, po, 15 mg/kg, route gavage, dose level Middle; for APTT / Bas / Eos / Fbg / Hb / Ht / Lym / MCH / MCHC / MCV / Mono / Neu / PT / Plat / RBC / Ret / WBC: tissue Blood; for LIVER: tissue Liver; for A/G / ALP / ALT / AST / BUN / CRE / Ca / Cl / DBIL / GLC / IP / K / LDH / Na / PL / RALB / TBIL / TC / TG / TP / gamma-GTP: tissue Plasma

SMILES: C=C(C)[C@H]1Cc2c(ccc3c2O[C@@H]2COc4cc(OC)c(OC)cc4[C@@H]2C3=O)O1 [ROTENONE]
- TERMINAL_BW (3 h): 196.9 g
- APTT (3 h): 16.9 s
- Bas (3 h): 0%
- Eos (3 h): 0.8%
- Fbg (3 h): 214 mg/dL
- Hb (3 h): 13.1 g/dL
- Ht (3 h): 40.1%
- Lym (3 h): 63.8%
- MCH (3 h): 20.7 pg
- MCHC (3 h): 32.6%
- MCV (3 h): 63.4 fL
- Mono (3 h): 13.6%
- Neu (3 h): 22%
- PT (3 h): 12.4 s
- Plat (3 h): 122.6 x10_4/uL
- RBC (3 h): 634 x10_4/ul
- Ret (3 h): 8.9%
- WBC (3 h): 89.2 x10_2/uL
- LIVER (3 h): 8.7 g
- A/G (3 h): 2.4
- ALP (3 h): 1502.2 IU/L
- ALT (3 h): 37.8 IU/L
- AST (3 h): 71.4 IU/L
- BUN (3 h): 14.2 mg/dL
- CRE (3 h): 0.4 mg/dL
- Ca (3 h): 10.9 mg/dL
- Cl (3 h): 104.2 meq/L
- DBIL (3 h): 0.01 mg/dL
- GLC (3 h): 191.6 mg/dL
- IP (3 h): 8.8 mg/dL
- K (3 h): 4 meq/L
- LDH (3 h): 106.6 IU/L
- Na (3 h): 141 meq/L
- PL (3 h): 126.8 mg/dL
- RALB (3 h): 3.9 g/dL
- TBIL (3 h): 0.038 mg/dL
- TC (3 h): 82 mg/dL
- TG (3 h): 37.4 mg/dL
- TP (3 h): 5.5 g/dL
- gamma-GTP (3 h): 0.8 IU/L
- TERMINAL_BW (6 h): 198.2 g
- APTT (6 h): 16.4 s
- Bas (6 h): 0%
- Eos (6 h): 0.8%
- Fbg (6 h): 209.6 mg/dL
- Hb (6 h): 13.2 g/dL
- Ht (6 h): 40.1%
- Lym (6 h): 75.8%
- MCH (6 h): 21 pg
- MCHC (6 h): 32.9%
- MCV (6 h): 63.9 fL
- Mono (6 h): 5.4%
- Neu (6 h): 18.2%
- PT (6 h): 12.4 s
- Plat (6 h): 127.4 x10_4/uL
- RBC (6 h): 628.4 x10_4/ul
- Ret (6 h): 8.2%
- WBC (6 h): 100.4 x10_2/uL
- LIVER (6 h): 8.7 g
- A/G (6 h): 2.3
- ALP (6 h): 1188.8 IU/L
- ALT (6 h): 33.6 IU/L
- AST (6 h): 68 IU/L
- BUN (6 h): 11.8 mg/dL
- CRE (6 h): 0.4 mg/dL
- Ca (6 h): 11 mg/dL
- Cl (6 h): 103.8 meq/L
- DBIL (6 h): 0.01 mg/dL
- GLC (6 h): 194 mg/dL
- IP (6 h): 9.7 mg/dL
- K (6 h): 4 meq/L
- LDH (6 h): 84.2 IU/L
- Na (6 h): 140.6 meq/L
- PL (6 h): 139.2 mg/dL
- RALB (6 h): 3.7 g/dL
- TBIL (6 h): 0.044 mg/dL
- TC (6 h): 79.8 mg/dL
- TG (6 h): 74.6 mg/dL
- TP (6 h): 5.4 g/dL
- gamma-GTP (6 h): 0.4 IU/L
- TERMINAL_BW (9 h): 198.7 g
- APTT (9 h): 16.4 s
- Bas (9 h): 0%
- Eos (9 h): 0.2%
- Fbg (9 h): 217 mg/dL
- Hb (9 h): 12.7 g/dL
- Ht (9 h): 38.7%
- Lym (9 h): 79.2%
- MCH (9 h): 21 pg
- MCHC (9 h): 32.9%
- MCV (9 h): 63.7 fL
- Mono (9 h): 6.8%
- Neu (9 h): 13.6%
- PT (9 h): 12.7 s
- Plat (9 h): 133.8 x10_4/uL
- RBC (9 h): 607.8 x10_4/ul
- Ret (9 h): 8.8%
- WBC (9 h): 91.4 x10_2/uL
- LIVER (9 h): 8.3 g
- A/G (9 h): 2.4
- ALP (9 h): 1265 IU/L
- ALT (9 h): 29.8 IU/L
- AST (9 h): 65.6 IU/L
- BUN (9 h): 10.4 mg/dL
- CRE (9 h): 0.4 mg/dL
- Ca (9 h): 11.4 mg/dL
- Cl (9 h): 104.2 meq/L
- DBIL (9 h): 0.01 mg/dL
- GLC (9 h): 186 mg/dL
- IP (9 h): 10 mg/dL
- K (9 h): 4.1 meq/L
- LDH (9 h): 103.8 IU/L
- Na (9 h): 139.8 meq/L
- PL (9 h): 132.2 mg/dL
- RALB (9 h): 3.7 g/dL
- TBIL (9 h): 0.044 mg/dL
- TC (9 h): 79.2 mg/dL
- TG (9 h): 40 mg/dL
- TP (9 h): 5.2 g/dL
- gamma-GTP (9 h): 1 IU/L
- TERMINAL_BW (24 h): 213.8 g
- APTT (24 h): 15.5 s
- Bas (24 h): 0%
- Eos (24 h): 0.8%
- Fbg (24 h): 216 mg/dL
- Hb (24 h): 12.8 g/dL
- Ht (24 h): 38.8%
- Lym (24 h): 78.6%
- MCH (24 h): 21.5 pg
- MCHC (24 h): 32.9%
- MCV (24 h): 65.3 fL
- Mono (24 h): 5.6%
- Neu (24 h): 15%
- PT (24 h): 11.8 s
- Plat (24 h): 113 x10_4/uL
- RBC (24 h): 595 x10_4/ul
- Ret (24 h): 8.1%
- WBC (24 h): 100 x10_2/uL
- LIVER (24 h): 11 g
- A/G (24 h): 2.6
- ALP (24 h): 1529.4 IU/L
- ALT (24 h): 36 IU/L
- AST (24 h): 67 IU/L
- BUN (24 h): 17.2 mg/dL
- CRE (24 h): 0.4 mg/dL
- Ca (24 h): 11.6 mg/dL
- Cl (24 h): 104.2 meq/L
- DBIL (24 h): 0.012 mg/dL
- GLC (24 h): 187 mg/dL
- IP (24 h): 7.4 mg/dL
- K (24 h): 4.4 meq/L
- LDH (24 h): 112.8 IU/L
- Na (24 h): 140.4 meq/L
- PL (24 h): 168.4 mg/dL
- RALB (24 h): 4 g/dL
- TBIL (24 h): 0.032 mg/dL
- TC (24 h): 88.8 mg/dL
- TG (24 h): 152 mg/dL
- TP (24 h): 5.6 g/dL
- gamma-GTP (24 h): 0.4 IU/L

From ChEMBL document CHEMBL3885861, “Open TG-GATES”
